This note sets out measurements from US8859573B2, “Pyrimidinone and pyridinone compounds for use in the treatment of diseases or conditions mediated by Lp-PLA2” (Glaxo Group Limited, priority 2010, dated 2014).

The test system of the assay is proinflammatory (M1) and anti-inflammatory (M2) markers. The experiment in a line: Ex vivo analysis of M1 and M2 markers in macrophages of EAE animals (realtime PCR). The conditions noted are these: EAE by MBP immunization, splenic macrophages day 13 and CNS infiltrating macrophages. Also noted: species or system rats. As for the experimental part:
A further study was carried out to study the impact of Lp-PLA2 inhibitors on modulating M1/M2 imbalance. In this study, rats were induced to develop experimental autoimmune encephalomyelitis (EAE) by immunization with myelin basic protein (MBP) antigen and treated with a known Lp-PLA2 inhibitor: 5-((9-Methoxy-4-oxo-6,7-dihydro-4H-pyrimido[6,1-a]isoquinolin-2-yl)oxy)-2-(3-(trifluoromethyl)phenoxy)benzonitrile (See PCT application no. PCT/CN2011/001597) For preventive treatment, compound administration started at day 0 whereas it started at 7 day in therapeutic treatment. Rats were subsequently monitored for symptoms of EAE. Rats were immunized with MBP to develop EAE and symptoms were monitored daily. Plasma Lp-PLA2 activity and LysoPC concentration were determined at different time points through the course of EAE.
Ex vivo analysis of proinflammatory (M1) and anti-inflammatory (M2) markers in control and compound treated EAE […]. Splenic macrophages were harvested at day 13 post MBP-immunization and assayed for expression of a variety of markers by realtime PCR. CNS infiltrating cells were harvested and macrophages were analyzed for expression of M1 and M2 markers by realtime PCR.

Take `COc1ccc2c(c1)CCn1c-2cc(Oc2ccc(Oc3cccc(C(F)(F)F)c3)c(C#N)c2)nc1=O` [5-((9-Methoxy-4-oxo-6,7-dihydro-4H-pyrimido[6,1-a]isoquinolin-2-yl)oxy)-2-(3-(trifluoromethyl)phenoxy)benzonitrile]: the M1 markers result was “decrease” and the M2 markers entry was “increase”.
